Laboratory results taken from PMC6302903, “Protein and Chemical Determinants of BL-1249 Action and Selectivity for K2P Channels” (ACS Chemical Neuroscience, 2018).

Molecular target: T1, K2P4.1(TRAAK) M134F (Mus musculus, UniProt O88454, M134F)
T1 construct: expressed in transfected cells; host or cells: Xenopus laevis oocytes, mRNA injected
Test: TEVC of K2P4.1(TRAAK) mutant M134F
Format: cell-based
Settings: Xenopus oocytes, saturation not reached, fit with upper boundary of 15 (I/I0)
Description: To identify K2P2.1(TREK-1) M2 residues that might participate in the BL-1249 response, we mapped the residues that differ between K2P2.1(TREK-1) and K2P4.1(TRAAK) in the context of the K2P2.1(TREK-1) structure[6] (Figure 5B,C). Two K2P2.1(TREK-1) M2 residues stood out as candidates that could explain the reduction in BL-1249 response when the entire M2 helix was replaced with M2 from K2P4.1(TRAAK). One is at the M2/M4 interface and occurs between Phe172 and Arg297 via a π–cation interaction that would be lost when Phe172 is replaced with the equivalent K2P4.1(TRAAK) residue Met134 (Figure 5C, right inset). […] To assess the importance of these interactions in the context of BL-1249 response, we made the K2P2.1(TREK-1) mutants F172M and F185L and measured their responses to BL-1249 (Figure 5D). […]
Xenopus laevis oocytes were harvested in accordance with UCSF IACUC protocol AN129690 and digested in calcium-free ND-96 (96 mM NaCl, 2 mM KCl, 3.8 mM MgCl2) immediately following harvest, as previously described.[6],[10] […] Defolliculated stage V–VI oocytes were injected with 0.2–6.0 ng of mRNA in 50 nL, and currents were recorded 24–48 h after injection. mRNA was synthesized from plasmid DNA using mMessage mMachine Kit (T7 promoter, Ambion, Life Technologies) and purified using RNEasy Kit (Qiagen). […]

T1 sequence (O88454 whole entry M134F): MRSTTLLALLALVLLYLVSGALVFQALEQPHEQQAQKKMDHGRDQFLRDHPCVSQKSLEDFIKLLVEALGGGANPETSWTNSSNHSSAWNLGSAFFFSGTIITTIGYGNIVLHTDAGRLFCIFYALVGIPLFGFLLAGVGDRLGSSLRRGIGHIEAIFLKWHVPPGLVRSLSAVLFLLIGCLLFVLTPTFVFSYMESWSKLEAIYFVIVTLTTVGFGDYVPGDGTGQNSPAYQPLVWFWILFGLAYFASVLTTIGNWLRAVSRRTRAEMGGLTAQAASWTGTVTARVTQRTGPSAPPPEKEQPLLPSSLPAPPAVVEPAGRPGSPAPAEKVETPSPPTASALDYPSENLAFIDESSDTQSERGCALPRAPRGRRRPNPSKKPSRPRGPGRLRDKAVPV

- EC50: 58 ± 34 µM
SMILES: c1ccc(-c2nnn[nH]2)c(Nc2cccc3c2CCCC3)c1 [BL-1249, (5,6,7,8-tetrahydro-naphthalen-1-yl)-[2-(1H-tetrazol-5-yl)-phenyl]-amine]
